Measured values from US11339130B1 (Blade Therapeutics, Inc., priority 2016, dated 2022).
Like-named read-outs stand apart in the source and are kept apart here.

Legend:
[1] = tested on: Calpain activity in SH-SY5Y cells (SBDP-150); assay: SH-SY5Y Spectrin western blot assay (SBDP-150 breakdown product, A23187-induced); format: cell-based; conditions: Homo sapiens, SH-SY5Y cells, read-out: SH-SY5Y Spectrin IC50
[2] = target: T1, Human Calpain 9/NS1 (Homo sapiens, UniProt O14815); assay: Calpain inhibition continuous fluorescence (FRET) assay, Human Calpain 9/NS1; format: biochemical; conditions: read-out: Human Calpain 9/NS1 IC50
T1 sequence (O14815 1-690): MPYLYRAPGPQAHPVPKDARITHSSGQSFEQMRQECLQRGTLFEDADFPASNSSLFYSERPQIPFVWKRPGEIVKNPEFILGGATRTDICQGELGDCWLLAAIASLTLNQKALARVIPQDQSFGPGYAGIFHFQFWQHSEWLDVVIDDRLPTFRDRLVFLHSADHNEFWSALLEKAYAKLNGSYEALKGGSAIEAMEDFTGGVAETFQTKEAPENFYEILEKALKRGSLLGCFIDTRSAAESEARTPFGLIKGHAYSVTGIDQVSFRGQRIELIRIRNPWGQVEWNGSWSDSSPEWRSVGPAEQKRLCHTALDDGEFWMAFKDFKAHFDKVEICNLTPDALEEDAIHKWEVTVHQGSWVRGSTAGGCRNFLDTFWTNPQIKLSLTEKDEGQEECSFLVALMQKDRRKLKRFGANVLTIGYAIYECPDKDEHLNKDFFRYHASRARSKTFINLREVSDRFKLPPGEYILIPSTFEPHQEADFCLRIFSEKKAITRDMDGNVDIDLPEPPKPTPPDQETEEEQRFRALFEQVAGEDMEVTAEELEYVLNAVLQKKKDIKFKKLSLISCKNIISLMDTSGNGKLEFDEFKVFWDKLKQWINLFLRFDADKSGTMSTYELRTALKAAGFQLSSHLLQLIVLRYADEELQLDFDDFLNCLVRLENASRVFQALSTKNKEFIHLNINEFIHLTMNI
T1 sequence (P04632 1-268 partner): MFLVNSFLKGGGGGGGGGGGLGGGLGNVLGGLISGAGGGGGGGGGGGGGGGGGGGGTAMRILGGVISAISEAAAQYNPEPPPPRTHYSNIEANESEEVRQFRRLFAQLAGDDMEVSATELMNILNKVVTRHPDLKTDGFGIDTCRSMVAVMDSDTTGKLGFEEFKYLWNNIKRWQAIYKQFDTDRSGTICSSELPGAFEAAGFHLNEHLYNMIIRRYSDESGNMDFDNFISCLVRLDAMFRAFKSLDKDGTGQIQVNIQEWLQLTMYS
How it was run: (§1)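 Buffer 50 mM Tris pH 7.5/100 mM NaCl/1 mM DTT; enzyme + cpd preinc 25C; start w/ FRET substrate + CaCl2; kinetic 490/520 nm, 10 min; slopes 1-5 min; 4-PL IC50.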

[3] = target: T2, Human Calpain 1/NS1 (Homo sapiens, UniProt P07384); assay: Calpain inhibition continuous fluorescence (FRET) assay, Human Calpain 1/NS1; format: biochemical; conditions: read-out: Human Calpain 1/NS1 IC50
T2 sequence (P07384 1-714): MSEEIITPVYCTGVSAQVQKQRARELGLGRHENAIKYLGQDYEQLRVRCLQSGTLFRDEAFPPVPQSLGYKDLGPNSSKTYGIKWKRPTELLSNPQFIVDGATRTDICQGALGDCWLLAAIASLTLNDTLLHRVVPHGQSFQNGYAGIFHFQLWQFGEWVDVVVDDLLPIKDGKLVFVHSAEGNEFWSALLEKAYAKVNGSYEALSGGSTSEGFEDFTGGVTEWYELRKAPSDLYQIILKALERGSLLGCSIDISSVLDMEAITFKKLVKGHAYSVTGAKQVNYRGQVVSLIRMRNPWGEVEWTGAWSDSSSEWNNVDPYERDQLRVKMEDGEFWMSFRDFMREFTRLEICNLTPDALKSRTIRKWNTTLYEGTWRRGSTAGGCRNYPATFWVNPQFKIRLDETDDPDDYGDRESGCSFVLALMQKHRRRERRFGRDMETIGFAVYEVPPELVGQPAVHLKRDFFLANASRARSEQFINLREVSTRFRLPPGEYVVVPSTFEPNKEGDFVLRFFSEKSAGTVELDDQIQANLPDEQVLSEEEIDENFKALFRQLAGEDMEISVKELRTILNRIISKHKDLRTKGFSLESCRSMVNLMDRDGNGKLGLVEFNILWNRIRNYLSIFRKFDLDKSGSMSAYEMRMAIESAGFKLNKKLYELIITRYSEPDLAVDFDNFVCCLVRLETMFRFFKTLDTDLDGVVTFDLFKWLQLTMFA
T2 sequence (P04632 1-268 partner): T1 sequence (P04632 1-268 partner)
How it was run: as §1

[4] = target: T3, Human Calpain 2/NS1 (Homo sapiens, UniProt P17655); assay: Calpain inhibition continuous fluorescence (FRET) assay, Human Calpain 2/NS1; format: biochemical; conditions: read-out: Human Calpain 2/NS1 IC50
T3 sequence (P17655 1-700): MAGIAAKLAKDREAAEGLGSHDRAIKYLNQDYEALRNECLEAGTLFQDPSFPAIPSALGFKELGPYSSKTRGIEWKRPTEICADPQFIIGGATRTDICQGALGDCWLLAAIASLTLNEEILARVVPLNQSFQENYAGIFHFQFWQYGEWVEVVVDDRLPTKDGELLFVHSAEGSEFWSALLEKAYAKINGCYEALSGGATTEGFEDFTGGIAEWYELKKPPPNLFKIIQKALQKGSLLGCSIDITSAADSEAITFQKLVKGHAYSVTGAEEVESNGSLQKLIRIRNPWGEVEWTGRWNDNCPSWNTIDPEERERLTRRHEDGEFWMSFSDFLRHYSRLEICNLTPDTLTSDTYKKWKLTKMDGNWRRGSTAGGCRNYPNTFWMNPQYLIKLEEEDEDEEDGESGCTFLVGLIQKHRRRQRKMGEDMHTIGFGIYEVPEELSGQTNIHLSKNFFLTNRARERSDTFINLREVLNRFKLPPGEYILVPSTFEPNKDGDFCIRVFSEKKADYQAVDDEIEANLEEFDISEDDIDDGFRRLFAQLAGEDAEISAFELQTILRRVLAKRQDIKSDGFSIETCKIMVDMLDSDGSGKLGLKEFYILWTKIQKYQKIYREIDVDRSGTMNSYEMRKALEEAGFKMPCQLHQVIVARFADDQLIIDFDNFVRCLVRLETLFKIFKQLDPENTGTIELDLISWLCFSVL
T3 sequence (P04632 1-268 partner): T1 sequence (P04632 1-268 partner)
How it was run: as §1

[5] = tested on: Calpain activity in SH-SY5Y cells; assay: SH-SY5Y + AMC fluorescence assay (Suc-LLVY-AMC substrate); format: cell-based; conditions: read-out: SH-SY5Y + AMC IC50
[6] = A23187-induced SBDP-150, western blot
[7] = Column D, A23187-induced SBDP-150

SMILES | IC50 [1, 6] | IC50 [2] | IC50 [3] | IC50 [4] | IC50 [5] | IC50 [1, 7] | IC50 ([2]; Column C) | IC50 ([3]; Column A) | IC50 ([4]; Column B) | IC50 ([5]; Column E)
Cc1ccccc1-c1nn(C(F)F)cc1C(=O)NC(Cc1ccccc1)C(=O)C(N)=O (stereo not shown) [Compound 382, N-(4-amino-3,4-dioxo-1-phenylbutan-2-yl)-1-(difluoromethyl)-3-(o-tolyl)-1H-pyrazole-4-carboxamide] | 10 to 25 µM | < 3 µM | < 3 µM | < 3 µM | < 10 µM |  |  |  |  | 
COC(=O)NCc1ccc(-n2nc(C)cc2C(=O)N[C@@H](Cc2ccccc2)C(=O)C(N)=O)cc1 [Compound 158, Methyl (S)-(4-(5-((4-amino-3,4-dioxo-1-phenylbutan-2-yl)carbamoyl)-3-methyl-1H-pyrazol-1-yl)benzyl)carbamate] |  |  |  |  |  | 10 to 25 µM | < 3 µM | < 3 µM | < 3 µM | > 25 µM
Cc1cc(C(=O)NC(Cc2ccccc2)C(=O)C(N)=O)n(-c2ccnc(C3CC3)n2)n1 (stereo not shown) [Compound 352, N-(4-amino-3,4-dioxo-1-phenylbutan-2-yl)-1-(2-cyclopropylpyrimidin-4-yl)-3-methyl-1H-pyrazole-5-carboxamide] | > 25 µM | < 3 µM | < 3 µM | < 3 µM | 10 to 25 µM |  |  |  |  | 
Cc1cc(C(=O)N[C@@H](Cc2ccccc2)C(=O)C(N)=O)nn1-c1ccnc(Cl)n1 [Compound 435, (S)—N-(4-amino-3,4-dioxo-1-phenylbutan-2-yl)-1-(2-chloropyrimidin-4-yl)-5-methyl-1H-pyrazole-3-carboxamide] | > 25 µM | 3 to 10 µM | > 10 µM | 3 to 10 µM | < 10 µM |  |  |  |  | 
NC(=O)C(=O)C(Cc1ccccc1)NC(=O)c1cn(C(F)F)nc1-c1ccc2ccccc2n1 (stereo not shown) [Compound 588, N-(4-amino-3,4-dioxo-1-phenylbutan-2-yl)-1-(difluoromethyl)-3-(quinolin-2-yl)-1H-pyrazole-4-carboxamide] | 10 to 25 µM | < 3 µM | < 3 µM | < 3 µM | > 25 µM |  |  |  |  | 
Cc1cc(C)cc(-c2nn(C(F)F)cc2C(=O)NC(Cc2ccccc2)C(=O)C(N)=O)c1 (stereo not shown) [Compound 565, N-(4-amino-3,4-dioxo-1-phenylbutan-2-yl)-1-(difluoromethyl)-3-(3,5-dimethylphenyl)-1H-pyrazole-4-carboxamide] | < 10 µM | < 3 µM | < 3 µM | < 3 µM | > 25 µM |  |  |  |  | 
Cn1cc(C(=O)N[C@@H](Cc2ccccc2)C(=O)C(N)=O)c(-c2cccc(C3CC3)c2)n1 [Compound 186, (S)—N-(4-amino-3,4-dioxo-1-phenylbutan-2-yl)-3-(3-cyclopropylphenyl)-1-methyl-1H-pyrazole-4-carboxamide] |  |  |  |  |  | > 25 µM | 3 to 10 µM | 3 to 10 µM | 3 to 10 µM | > 25 µM
Cc1cc(C(=O)NC(Cc2ccccc2)C(=O)C(=O)NC2CC2)n(-c2ccccn2)n1 (stereo not shown) [Compound 456, N-(4-(cyclopropylamino)-3,4-dioxo-1-phenylbutan-2-yl)-3-methyl-1-(pyridin-2-yl)-1H-pyrazole-5-carboxamide] | > 25 µM | < 3 µM | < 3 µM | < 3 µM | < 10 µM |  |  |  |  | 
Cc1cc(C(=O)NC(C=O)Cc2ccccc2)n(-c2ccccn2)n1 (stereo not shown) [Compound 398, 3-methyl-N-(1-oxo-3-phenylpropan-2-yl)-1-(pyridin-2-yl)-1H-pyrazole-5-carboxamide] | > 25 µM | < 3 µM | < 3 µM | < 3 µM | > 25 µM |  |  |  |  | 
NC(=O)C(=O)[C@H](Cc1ccccc1)NC(=O)c1cn(CC2CC2)nc1-c1ccccc1 [Compound 251, (S)—N-(4-amino-3,4-dioxo-1-phenylbutan-2-yl)-1-(cyclopropylmethyl)-3-phenyl-1H-pyrazole-4-carboxamide] |  |  |  |  |  | > 25 µM | < 3 µM | < 3 µM | < 3 µM | > 25 µM
Cn1cc(C(=O)NC(Cc2ccccc2)C(=O)C(N)=O)c(-c2ccc3ncccc3c2)n1 (stereo not shown) [Compound 593, N-(4-amino-3,4-dioxo-1-phenylbutan-2-yl)-1-methyl-3-(quinolin-6-yl)-1H-pyrazole-4-carboxamide] | > 25 µM | < 3 µM | < 3 µM | < 3 µM | > 25 µM |  |  |  |  | 
Cc1cc(C(=O)N[C@@H](Cc2ccccc2)C(=O)C(N)=O)n(-c2ccc(-c3ccccc3F)cc2)n1 [Compound 217, (S)—N-(4-amino-3,4-dioxo-1-phenylbutan-2-yl)-1-(2′-fluoro-[1,1′-biphenyl]-4-yl)-3-methyl-1 h-pyrazole-5-carboxamide] |  |  |  |  |  | < 10 µM | < 3 µM | < 3 µM | < 3 µM | > 25 µM
NC(=O)C(=O)[C@H](Cc1ccccc1)NC(=O)c1cncn1-c1ccccn1 [Compound 24, (S)—N-(4-amino-3,4-dioxo-1-phenylbutan-2-yl)-1-(pyridin-2-yl)-1H-imidazole-5-carboxamide] |  |  |  |  |  | > 25 µM | < 3 µM | < 3 µM | < 3 µM | > 25 µM
NC(=O)C(=O)C(CCc1ccccc1)NC(=O)c1nsnc1-c1ccccc1 (stereo not shown) [Compound 463, N-(1-amino-1,2-dioxo-5-phenylpentan-3-yl)-4-phenyl-1,2,5-thiadiazole-3-carboxamide] | < 10 µM | < 3 µM | < 3 µM | < 3 µM | > 25 µM |  |  |  |  | 
